Counter-ions that a name gives are not always drawn.
Assays:
Format in all cases: in vivo, ddY-strain male mice
[1] = test system: locomotor activity of mice; assay: Effects on locomotor activity, wheel cage method
Description: (§1) In Tests 1 to 4 given below, ddY-strain male mice (body weight 20-25 g) were used, and the experiments were carried out in a semi-soundproof, constant-temperature room kept at a temperature of 23±1° C. and a humidity of 55±2%. The mice were allowed to take feed and water freely.
Test 1: Effects on locomotor activity
The effects of the test compound on the locomotor activities of the mice were examined by using wheel cages (made by Kishimoto Ika). […] The mice were used in groups each consisting of 8 mice. The test compound was intraperitoneally administered to the mice in the doses indicated, and immediately then, the mice were put into the cages. The locomotor activities (the number of revolutions) were measured for 90 minutes at 15 minute intervals, and compared with that of the control group.

[2] = test system: sleeping induced by pentobarbital; assay: Effect of prolonging the time of sleeping induced by pentobarbital; conditions: pentobarbital sodium 50 mg/kg s.c.
Description: as §1
Test 3: Effect of prolonging the time of sleeping induced by pentobarbital
The effects of the test compounds on sleeping induced by pentobarbital were examined. The disappearance of righting reflex for 5 seconds or more was used as an index of sleeping. Mice were divided into 10-membered groups. Each of the test compounds was intraperitoneally administered to the mice in the doses indicated. Immediately then, pentobarbital sodium salt was subcutaneously injected into the mice in a dose of 50 mg/kg, and the sleeping time was compared with that of a group to which pentobarbital alone was injected (control).

[3] = test system: cycloheximide-induced amnesia model; assay: Effects on CXM-induced amnesia (step-down retention test); conditions: for Escape learning latency (mean ± S.E.) / Step-down latency (mean ± S.E.): retention test 24 hours
Description: The test animals used were ddY-strain male mice (body weight 30-35 g). The experiment was carried out indoors at about 20° C., and the mice were allowed to take feed and water freely. 2. Effects on memorized behaviors
A device comprised of a floor grid surrounded on four sides by acrylic glass walls each having a lateral dimension of 21 cm and a wooden platform, 4×4×4 cm in size, fixed centrally to the floor grid was placed in a wooden semi-soundproof box having a size of 21×21×40 cm with a 15W electric bulb suspended from its ceiling.
The floor grid consisted of stainless steel rods, 3 mm in diameter, arranged at intervals of 8 mm. An intermittent electric shock (1 Hz, 0.5 sec., 60 V DC) was applied to the grid by an electric impulse apparatus and an isolator.
A mouse was placed in a predetermined direction on the platform. Immediately after the mouse stepped down onto the floor grid (when the mouse's four limbs left the platform), an electric shock was applied to the floor grid, and the intermittent application of the electric shock was continued until the mouse climbed up the platform to escape from the electric shock. The time which elapsed until the mouse stepped down from the platform (SDL, step down latency) and the time which elapsed until the mouse escaped to the platform from the electric shock (ELL, escape learning latency) were measured.
By the same procedure as in the training test, a mouse was placed on the platform, and its step down latency (SDL) was measured. The cut-off time was 300 seconds.
After the mouse stepped down, or the cut-off time elapsed, the mouse was placed on the floor grid at a corner of the device with its head directed in a direction opposite to the platform. An electric shock was applied to the mouse and its escape learning latency (ELL) was measured.
Mice divided into groups each consisting of not less than 20 mice were subjected to the training test, and immediately then subcutaneously injected with CXM (150 mg/kg). Twenty-four hours later, the mice was subjected to the retention test.
Immediately after administration of CXM or application of ECS, a 0.9% normal saline solution of each of the test compounds was intraperitoneally administered to the mice. Separately, a 5% gum arabic solution of CXM was administered to the mice in a control group.

[4] = test system: electric convulsive shock-induced amnesia model; assay: Effects on ECS-induced amnesia (step-down retention test); conditions: for Escape learning latency (mean ± S.E.) / Step-down latency (mean ± S.E.): ECS 300 V, retention test 24 hours
Description: The test animals used were ddY-strain male mice (body weight 30-35 g). The experiment was carried out indoors at about 20° C., and the mice were allowed to take feed and water freely. 2. Effects on memorized behaviors A device comprised of a floor grid surrounded on four sides by acrylic glass walls each having a lateral dimension of 21 cm and a wooden platform, 4×4×4 cm in size, fixed centrally to the floor grid was placed in a wooden semi-soundproof box having a size of 21×21×40 cm with a […] electric bulb suspended from its ceiling. The floor grid consisted of stainless steel rods, 3 mm in diameter, arranged at intervals of 8 mm. An intermittent electric shock (1 Hz, 0.5 sec., 60 V DC) was applied to the grid by an electric impulse apparatus and an isolator. A mouse was placed in a predetermined direction on the platform. Immediately after the mouse stepped down onto the floor grid (when the mouse's four limbs left the platform), an electric shock was applied to the floor grid, and the intermittent application of the electric shock was continued until the mouse climbed up the platform to escape from the electric shock. The time which elapsed until the mouse stepped down from the platform (SDL, step down latency) and the time which elapsed until the mouse escaped to the platform from the electric shock (ELL, escape learning latency) were measured. […] By the same procedure as in the training test, a mouse was placed on the platform, and its step down latency (SDL) was measured. The cut-off time was 300 seconds. After the mouse stepped down, or the cut-off time elapsed, the mouse was placed on the floor grid at a corner of the device with its head directed in a direction opposite to the platform. An electric shock was applied to the mouse and its escape learning latency (ELL) was measured. Mice divided into groups each consisting of not less than 15 mice were subjected to the training test, and immediately then, ECS (300 V DC, 0.5 sec.) was applied to the mice through both ears. Twenty-four hours later, the mice were subjected to the retention test. Immediately after administration of CXM or application of ECS, a 0.9% normal saline solution of each of the test compounds was intraperitoneally administered to the mice. Separately, a 5% gum arabic solution of CXM was administered to the mice in a control group. […] But the mice recovered 1 to 2 minutes later.

[5] = 500 mg/kg i.p., CXM 150 mg/kg s.c.
[6] = 1000 mg/kg i.p., CXM 150 mg/kg s.c.

**Q.** With CC(O)(CCO)CC(=O)NCCCC(=O)O (stereo not shown) [MV-GABA-Ca salt, calcium 4-(3,5-dihydroxy-3-methylpentylamide) butyrate] as the molecule, how does the “Motor activity (total number of revolutions per mouse)” value ([1]; 250 mg/kg i.p., 15 minutes) read?
**A.** 201 revolutions per mouse

**Q.** And the “Motor activity (total number of revolutions per mouse)” value ([1]; 250 mg/kg i.p., 30 minutes)?
**A.** 406 revolutions per mouse

**Q.** What about the “Motor activity (total number of revolutions per mouse)” value ([1]; 250 mg/kg i.p., 45 minutes) of the same molecule?
**A.** 560 revolutions per mouse

**Q.** And the “Motor activity (total number of revolutions per mouse)” value ([1]; 250 mg/kg i.p., 60 minutes)?
**A.** 727 revolutions per mouse

**Q.** What about the “Motor activity (total number of revolutions per mouse)” value ([1]; 250 mg/kg i.p., 75 minutes) of the same molecule?
**A.** 865 revolutions per mouse

**Q.** What about the “Motor activity (total number of revolutions per mouse)” value ([1]; 250 mg/kg i.p., 90 minutes) of the same molecule?
**A.** 916 revolutions per mouse

**Q.** What about the “Motor activity (total number of revolutions per mouse)” value ([1]; 500 mg/kg i.p., 15 minutes) of the same molecule?
**A.** 132 revolutions per mouse

**Q.** And the “Motor activity (total number of revolutions per mouse)” value ([1]; 500 mg/kg i.p., 30 minutes)?
**A.** 289 revolutions per mouse

**Q.** And the “Motor activity (total number of revolutions per mouse)” value ([1]; 500 mg/kg i.p., 45 minutes)?
**A.** 448 revolutions per mouse

**Q.** What about the “Motor activity (total number of revolutions per mouse)” value ([1]; 500 mg/kg i.p., 60 minutes) of the same molecule?
**A.** 615 revolutions per mouse

**Q.** And the “Motor activity (total number of revolutions per mouse)” value ([1]; 500 mg/kg i.p., 75 minutes)?
**A.** 826 revolutions per mouse

**Q.** What about the “Motor activity (total number of revolutions per mouse)” value ([1]; 500 mg/kg i.p., 90 minutes) of the same molecule?
**A.** 1034 revolutions per mouse

**Q.** What about the “Motor activity (total number of revolutions per mouse)” value ([1]; 1000 mg/kg i.p., 15 minutes) of the same molecule?
**A.** 76 revolutions per mouse

**Q.** What about the “Motor activity (total number of revolutions per mouse)” value ([1]; 1000 mg/kg i.p., 30 minutes) of the same molecule?
**A.** 165 revolutions per mouse

**Q.** What about the “Motor activity (total number of revolutions per mouse)” value ([1]; 1000 mg/kg i.p., 45 minutes) of the same molecule?
**A.** 265 revolutions per mouse

**Q.** What about the “Motor activity (total number of revolutions per mouse)” value ([1]; 1000 mg/kg i.p., 60 minutes) of the same molecule?
**A.** 428 revolutions per mouse

**Q.** And the “Motor activity (total number of revolutions per mouse)” value ([1]; 1000 mg/kg i.p., 75 minutes)?
**A.** 639 revolutions per mouse

**Q.** And the “Motor activity (total number of revolutions per mouse)” value ([1]; 1000 mg/kg i.p., 90 minutes)?
**A.** 837 revolutions per mouse

**Q.** What about the Sleeping time ([2]; 1000 mg/kg i.p.) of the same molecule?
**A.** 62.7 ± 7.5 min

**Q.** What about the Sleeping time ([2]; 2000 mg/kg i.p.) of the same molecule?
**A.** 77.2 ± 5.2 min

**Q.** What about the “shortening of SDL induced by CXM” value ([3]; 500 mg/kg and 1,000 mg/kg, result in words) of the same molecule?
**A.** significantly improved the shortening of SDL

**Q.** What about the “Escape learning latency (mean ± S.E.)” value [3, 5] of the same molecule?
**A.** 10.5 ± 0.6 s

**Q.** And the “Step-down latency (mean ± S.E.)” value [3, 5]?
**A.** 120.5 ± 10.6 s

**Q.** What about the “Escape learning latency (mean ± S.E.)” value [3, 6] of the same molecule?
**A.** 7.5 ± 0.6 s

**Q.** And the “Step-down latency (mean ± S.E.)” value [3, 6]?
**A.** 175.2 ± 16.1 s

**Q.** What about the “Escape learning latency (mean ± S.E.)” value ([3]; 1000 mg/kg i.p., without CXM) of the same molecule?
**A.** 5.2 ± 0.6 s

**Q.** And the “Step-down latency (mean ± S.E.)” value ([3]; 1000 mg/kg i.p., without CXM)?
**A.** 260.5 ± 14.0 s

**Q.** What about the “prolongation of ELL induced by CXM” value ([3]; 1,000 mg/kg, result in words) of the same molecule?
**A.** significantly improved the prolongation of ELL

**Q.** What about the memory activating action ([3]; without CXM, vs control group, result in words) of the same molecule?
**A.** did not show memory activating action

**Q.** What about the “Escape learning latency (mean ± S.E.)” value ([4]; 250 mg/kg i.p.) of the same molecule?
**A.** 12.8 ± 1.6 s

**Q.** And the “Step-down latency (mean ± S.E.)” value ([4]; 250 mg/kg i.p.)?
**A.** 104.6 ± 17.7 s

**Q.** And the “Escape learning latency (mean ± S.E.)” value ([4]; 500 mg/kg i.p.)?
**A.** 8.0 ± 1.1 s

**Q.** And the “Step-down latency (mean ± S.E.)” value ([4]; 500 mg/kg i.p.)?
**A.** 158.5 ± 21.7 s

**Q.** And the “prolongation of ELL (ECS)” value ([4]; 500 mg/kg, result in words)?
**A.** significantly improved the prolongation of ELL

**Q.** And the “Escape learning latency (mean ± S.E.)” value ([4]; 750 mg/kg i.p.)?
**A.** 6.7 ± 0.7 s

**Q.** And the “Step-down latency (mean ± S.E.)” value ([4]; 750 mg/kg i.p.)?
**A.** 215.2 ± 15.9 s

**Q.** What about the “shortening of SDL and prolongation of ELL (ECS)” value ([4]; 750 mg/kg, result in words) of the same molecule?
**A.** significantly improved shortening of SDL and also the prolongation of ELL

Source: patent US4703061A, “Gamma-aminobutyric acid derivatives, process for production thereof, and use thereof as medicaments” (priority 1984, dated 1987)
